According to patent US20240376073A1 (Hoffmann-La Roche Inc., priority 2021, published 2024):
Counter-ions that a name gives are not always drawn. Like-named read-outs stand apart in the source and are kept apart here.

Test system: Acinetobacter baumannii ATCC17961
Test: Antimicrobial susceptibility testing: 90% growth inhibitory concentration (IC90) determination
Format: cell-based
Conditions: Iso-Sensitest broth, growth by OD 600 nm over 16 h, 35±2° C.
Method: The in vitro antimicrobial activity of the compounds was determined according to the following procedure:
The assay used a 10-points Iso-Sensitest broth medium to measure quantitatively the in vitro activity of the compounds against Acinetobacter baumannii ATCC17961.
Stock compounds in DMSO were serially twofold diluted (e.g. range from 50 to 0.097 μM final concentration) in 384 wells microtiter plates and inoculated with 49 μl the bacterial suspension in Iso-Sensitest medium to have a final cell concentration of ˜5×10^(5) CFU/ml in a final volume/well of 50 ul/well. Microtiter plates were incubated at 35±2° C.
Bacterial cell growth was determined with the measurement of optical density at λ=600 nm each 20 minutes over a time course of 16 h. Growth inhibition was calculated during the logarithmic growth of the bacterial cells with determination of the concentration inhibiting 50% (IC50) and 90% (IC90) of the growth.
Table 1 provides the […] growth inhibitory concentrations (IC90) in micromoles per liter of the compounds of present invention obtained against the strain Acinetobacter baumannii ATCC17961.

[1] = Acinetobacter baumannii, ATCC17961, 16 h, read-out: ATCC 17961 IC90, Acinetobacter baumannii ATCC17961
[2] = Acinetobacter baumannii ATCC17961, read-out: ATCC 17961 IC90

Row | SMILES | IC90 [2] [nM] | IC90 [1] [nM]
1 | Cn1c(-c2ccc(OC(F)F)c(F)c2F)cnc1C(=O)Nc1ccc(C(=O)N2CCN(C(=O)C[N+]3(C)CCNCC3)CC2)c(Cl)c1 [Example C24, N-[3-chloro-4-[4-[2-(1-methylpiperazin-1-ium-1-yl)acetyl]piperazine-1-carbonyl]phenyl]-5-[4-(difluoromethoxy)-2,3-difluoro-phenyl]-1-methyl-imidazole-2-carboxamide;2,2,2-trifluoroacetate;2,2,2-trifluoroacetic acid] | – | 63
2 | Cn1c(-c2ccc(OCC#N)c(F)c2F)cnc1C(=O)Nc1ccc(C(=O)N2CCN(C(=O)C[N+](C)(C)CC(N)=O)CC2)c(Cl)c1 [Example B4, (2-amino-2-oxo-ethyl)-[2-[4-[2-chloro-4-[[5-[4-(cyanomethoxy)-2,3-difluoro-phenyl]-1-methyl-imidazole-2-carbonyl]amino]benzoyl]piperazin-1-yl]-2-oxo-ethyl]-dimethyl-ammonium; formate] | 110 | –
3 | COc1ccc(-c2cnc(C(=O)Nc3ccc(C(=O)NCc4cn(CC(N)=O)[n+](C)c4)c(Cl)c3)n2C)c(F)c1F [Example A23, N-[4-[1-(2-amino-2-oxo-ethyl)-2-methyl-pyrazol-2-ium-4-yl]methylcarbamoyl]-3-chloro-phenyl]-5-(2,3-difluoro-4-methoxy-phenyl)-1-methyl-imidazole-2-carboxamide; formate] | 400 | –
4 | COc1ccc(-c2cnc(C(=O)Nc3ccc(C(=O)N4C[C@H]5CN(C(=O)C[N+](C)(C)C)C[C@H]5C4)c(Cl)c3)n2C)c(F)c1F [Example B19, [2-[(3aS,6aR)-5-[2-chloro-4-[[5-(2,3-difluoro-4-methoxy-phenyl)-1-methyl-imidazole-2-carbonyl]amino]benzoyl]-1,3,3a,4,6,6a-hexahydropyrrolo[3,4-c]pyrrol-2-yl]-2-oxo-ethyl]-trimethyl-ammonium; formate] | 310 | –
5 | COc1ccc(-c2cnc(C(=O)Nc3ccc(C(=O)N4CCN(C(=O)[C@@H]5COCC[N+]5(C)C)CC4)c(Cl)c3)n2C)c(F)c1F [Example B35, N-[3-chloro-4-[4-[(3S)-4,4-dimethylmorpholin-4-ium-3-carbonyl]piperazine-1-carbonyl]phenyl]-5-(2,3-difluoro-4-methoxy-phenyl)-1-methyl-imidazole-2-carboxamide; iodide] | 130 | –
6 | Cn1c(-c2ccc(OCC#N)c(F)c2F)cnc1C(=O)Nc1ccc(C(=O)N[C@H]2C[C@@H](NCC[N+](C)(C)C)C2)c(Cl)c1 [Example A17, 2-[[3-[[2-chloro-4-[[5-[4-(cyanomethoxy)-2,3-difluoro-phenyl]-1-methyl-imidazole-2-carbonyl]amino]benzoyl]amino]cyclobutyl]amino]ethyl-trimethyl-ammonium formate] | 340 | –
7 | COc1ccc(-c2cnc(C(=O)Nc3ccc(C(=O)N4CCN(C(=O)[C@@H]5[C@@H](O)[C@@H](O)C[N+]5(C)C)CC4)c(Cl)c3)n2C)c(F)c1F [Example B50, N-[3-chloro-4-[4-[(2S,3R,4S)-3,4-dihydroxy-1,1-dimethyl-pyrrolidin-1-ium-2-carbonyl]piperazine-1-carbonyl]phenyl]-5-(2,3-difluoro-4-methoxy-phenyl)-1-methyl-imidazole-2-carboxamide formate] | – | 250
8 | COc1ccc(-c2cnc(C(=O)Nc3ccc(C(=O)N4CCN(C(=O)C5CC[N+](CCCN)(CC(=O)O)CC5)CC4)c(Cl)c3)n2C)c(F)c1F (stereo not shown) [Example C32, 2-[1-(3-aminopropyl)-4-[4-[2-chloro-4-[[5-(2,3-difluoro-4-methoxy-phenyl)-1-methyl-imidazole-2-carbonyl]amino]benzoyl]piperazine-1-carbonyl]piperidin-1-ium-1-yl]acetic acid; formate] | – | 810
9 | COc1ccc(-c2cnc(C(=O)Nc3ccc(C(=O)NCc4cnc(NC(=O)[C@@H]5C[C@@H](O)C[N+]5(C)C)s4)c(Cl)c3)n2C)c(F)c1F [Example A27, N-[3-chloro-4-[[2-[[(2S,4R)-4-hydroxy-1,1-dimethyl-pyrrolidin-1-ium-2-carbonyl]amino]thiazol-5-yl]methylcarbamoyl]phenyl]-5-(2,3-difluoro-4-methoxy-phenyl)-1-methyl-imidazole-2-carboxamide; formate] | 56 | –
10 | COc1ccc(-c2cnc(C(=O)Nc3ccc(C(=O)NCCCCC[N+](C)(C)CC(N)=O)c(Cl)c3)n2C)c(F)c1F [Example A3, (2-amino-2-oxo-ethyl)-[5-[[2-chloro-4-[[5-(2,3-difluoro-4-methoxy-phenyl)-1-methyl-imidazole-2-carbonyl]amino]benzoyl]amino]pentyl]-dimethyl-ammonium; formate] | 160 | –
11 | Cn1c(-c2ccc(OCF)c(F)c2Cl)cnc1C(=O)Nc1ccc(C(=O)N2CCN(C(=O)C3CC[N+](CC(=O)O)(CC4CNC4)CC3)CC2)c(Cl)c1 (stereo not shown) [Example C41, 2-[1-(azetidin-3-ylmethyl)-4-[4-[2-chloro-4-[[5-[2-chloro-3-fluoro-4-(fluoromethoxy)phenyl]-1-methyl-imidazole-2-carbonyl]amino]benzoyl]piperazine-1-carbonyl]piperidin-1-ium-1-yl]acetic acid formate] | – | 480

Further lines, with some results ahead:

Row | IC90 [2] [nM] | SMILES | IC90 [1] [nM]
12 | 73 | Cn1c(-c2ccc(OC(F)F)c(F)c2Cl)cnc1C(=O)Nc1ccc(C(=O)N2CCN(C(=O)C3CC[N+](C)(CC4CNC4)CC3)CC2)c(Cl)c1 (stereo not shown) [Example C15, N-[4-[4-[1-(azetidin-3-yl-methyl)-1-meth-yl-piperidin-1-ium-4-carbonyl]-piperazine-1-car-bonyl]-3-chloro-phenyl]-5-[2-chloro-4-(difluoro-methoxy)-3-fluoro-phenyl]-1-methyl-imidazole-2-carboxamide; formic acid; formate] | –
13 | 270 | CCc1cc(NC(=O)c2ncc(-c3ccc(OC(F)F)c(F)c3F)n2C)ccc1C(=O)N1CCN(C(=O)C2CC[N+](C)(CC3CNC3)CC2)CC1 (stereo not shown) [Example C19] | –
14 | 640 | COc1ccc(-c2cnc(C(=O)Nc3ccc(C(=O)N4CCN(C(=O)C5CC[N+](C)(CC(=O)O)CC5)CC4)c(Cl)c3)n2C)c(F)c1F (stereo not shown) [Example C8, 2-[4-[4-[2-chloro-4-[[5-(2,3-difluoro-4-methoxy-phen-yl)-1-methyl-imidazole-2-carbonyl]amino]-benzoyl]piper-azine-1-carbon-yl]-1-methyl-piperidin-1-ium-1-yl]acetic acid; formate] | –
15 | 23 | Cn1c(-c2ccc(OC(F)F)c(F)c2Cl)cnc1C(=O)Nc1ccc(C(=O)N2CCN(C(=O)C3CC[N+](C)(CC(N)=O)CC3)CC2)c(Cl)c1 (stereo not shown) [Example C1, N-[4-[4-[1-(2-Amino-2-oxo-ethyl)-1-methyl-piperidin-1-ium-4-carbonyl]piperazine-1-carbonyl]-3-chloro-phenyl]-5-[2-chloro-4-(difluoromethoxy)-3-fluoro-phenyl]-1-methyl-imidazole-2-carboxamide;formate] | –
16 | 130 | COc1ccc(-c2cnc(C(=O)Nc3ccc(C(=O)N4CCN(C(=O)C[N+]5(C)CCCC5)CC4)c(Cl)c3)n2C)c(F)c1F [Example C28, N-[3-chloro-4-[4-[2-(1-methylpyr-rolidin-1-ium-1-yl)acetyl]piper-azine-1-carbonyl]-phenyl]-5-(2,3-difluoro-4-meth-oxy-phenyl)-1-methyl-imidazole-2-carboxamide; formate] | –
